# Tests used:
# [1] = test system: Spring Argentine canola (Brassica napus, BRSNS); assay: Example 3 field trials (Canada), postemergence crop safety, visual phytotoxicity
# [2] = test system: Aparima Gold swede (Brassica sp., BRSSS); assay: Example 1 pot trials, postemergence crop safety, visual phytotoxicity
smiles,measurement,setting,value
"COC(=O)c1nc(-c2ccc(Cl)c(OC)c2F)cc(N)c1Cl [Halauxifen-methyl, methyl 4-amino-3-chloro-6-(4-chloro-2-fluoro-3-methoxyphenyl)-2-pyridineccarboxylate]",Mean % Visual Injury,"[1]; Table 17, 15DAAA, halauxifen-methyl 5, clopyralid-olamine 150 g ae/ha alone, or both mixed with isoxadifen-ethyl 5 g ae/ha",50.5%
same,Mean % Visual Injury,"[1]; Table 17, 27DAAA, halauxifen-methyl 5, clopyralid-olamine 150 g ae/ha alone, or both mixed with isoxadifen-ethyl 5 g ae/ha",48.5%
same,Mean % Visual Injury,"[1]; Table 17, 57DAAA, halauxifen-methyl 5, clopyralid-olamine 150 g ae/ha alone, or both mixed with isoxadifen-ethyl 5 g ae/ha",30.3%
same,Mean % Visual Injury,"[1]; Table 18, 8DAAA, halauxifen-methyl 5, clopyralid-olamine 150 g ae/ha, alone or mixed",10%
same,Mean % Visual Injury,"[1]; Table 18, 14DAAA, halauxifen-methyl 5, clopyralid-olamine 150 g ae/ha, alone or mixed",24%
same,Mean % Visual Injury,"[1]; Table 18, 40DAAA, halauxifen-methyl 5, clopyralid-olamine 150 g ae/ha, alone or mixed",7%
same,Mean % Visual Injury,"[1]; Table 18, 81DAAA, halauxifen-methyl 5, clopyralid-olamine 150 g ae/ha, alone or mixed",6%
same,Mean % Visual Injury,"[1]; Table 19, 8DAAA, halauxifen-methyl 5, clopyralid-olamine 150 g ae/ha alone, or both mixed with isoxadifen-ethyl 20 g ae/ha",10%
same,Mean % Visual Injury,"[1]; Table 19, 14DAAA, halauxifen-methyl 5, clopyralid-olamine 150 g ae/ha alone, or both mixed with isoxadifen-ethyl 20 g ae/ha",24%
same,Mean % Visual Injury,"[1]; Table 19, 40DAAA, halauxifen-methyl 5, clopyralid-olamine 150 g ae/ha alone, or both mixed with isoxadifen-ethyl 20 g ae/ha",7%
same,Mean % Visual Injury,"[1]; Table 19, 81DAAA, halauxifen-methyl 5, clopyralid-olamine 150 g ae/ha alone, or both mixed with isoxadifen-ethyl 20 g ae/ha",6%
same,Mean % Visual Injury,"[1]; Table 21, 8DAAA, halauxifen-methyl 5, quinclorac 101 g ae/ha, alone or mixed",10%
same,Mean % Visual Injury,"[1]; Table 21, 14DAAA, halauxifen-methyl 5, quinclorac 101 g ae/ha, alone or mixed",24%
same,Mean % Visual Injury,"[1]; Table 21, 40DAAA, halauxifen-methyl 5, quinclorac 101 g ae/ha, alone or mixed",7%
same,Mean % Visual Injury,"[1]; Table 21, 81DAAA, halauxifen-methyl 5, quinclorac 101 g ae/ha, alone or mixed",6%
same,Mean % Visual Injury,"[1]; Table 22, 8DAAA, halauxifen-methyl 5, clopyralid-olamine 150, quinclorac 101 g ae/ha, alone or mixed",10%
same,Mean % Visual Injury,"[1]; Table 22, 14DAAA, halauxifen-methyl 5, clopyralid-olamine 150, quinclorac 101 g ae/ha, alone or mixed",24%
same,Mean % Visual Injury,"[1]; Table 22, 40DAAA, halauxifen-methyl 5, clopyralid-olamine 150, quinclorac 101 g ae/ha, alone or mixed",7%
same,Mean % Visual Injury,"[1]; Table 22, 81DAAA, halauxifen-methyl 5, clopyralid-olamine 150, quinclorac 101 g ae/ha, alone or mixed",6%
same,Mean % Visual Injury,"[1]; Table 23, 7DAAA, halauxifen-methyl 5, clopyralid-olamine 150 g ae/ha, alone or mixed",2.5%
same,Mean % Visual Injury,"[1]; Table 23, 17DAAA, halauxifen-methyl 5, clopyralid-olamine 150 g ae/ha, alone or mixed",3.0%
same,Mean % Visual Injury,"[1]; Table 23, 49DAAA, halauxifen-methyl 5, clopyralid-olamine 150 g ae/ha, alone or mixed",2.5%
same,Mean % Visual Injury,"[1]; Table 24, 7DAAA, halauxifen-methyl 5, clopyralid-olamine 150 g ae/ha alone, or both mixed with isoxadifen-ethyl 20 g ae/ha",2.5%
same,Mean % Visual Injury,"[1]; Table 24, 17DAAA, halauxifen-methyl 5, clopyralid-olamine 150 g ae/ha alone, or both mixed with isoxadifen-ethyl 20 g ae/ha",3.0%
same,Mean % Visual Growth Inhibition,"[1]; Trial 1, 16DAA1, halauxifen-methyl 2.5, clopyralid-olamine 150 g ae/ha, alone or mixed",1.5%
same,Mean % Visual Growth Inhibition,"[1]; Trial 1, 30DAA1, halauxifen-methyl 2.5, clopyralid-olamine 150 g ae/ha, alone or mixed",3.3%
same,Mean % Visual Growth Inhibition,"[1]; Trial 1, 58DAA1, halauxifen-methyl 2.5, clopyralid-olamine 150 g ae/ha, alone or mixed",1.0%
same,Mean % Visual Growth Inhibition,"[1]; Trial 2, 32DAA1, halauxifen-methyl 0.62, clopyralid-olamine 150 g ae/ha, alone or mixed",1.0%
same,Mean % Visual Growth Inhibition,"[1]; Trial 2, 32DAA1, halauxifen-methyl 1.25, clopyralid-olamine 150 g ae/ha, alone or mixed",3.8%
same,Mean % Visual Growth Inhibition,"[1]; Trial 2, 32DAA1, halauxifen-methyl 2.5, clopyralid-olamine 150 g ae/ha, alone or mixed",8.0%
same,Mean % Visual Growth Inhibition,"[1]; Trial 2, 49DAA1, halauxifen-methyl 0.62, clopyralid-olamine 150 g ae/ha, alone or mixed",0.3%
same,Mean % Visual Growth Inhibition,"[1]; Trial 2, 49DAA1, halauxifen-methyl 1.25, clopyralid-olamine 150 g ae/ha, alone or mixed",2.3%
same,Mean % Visual Growth Inhibition,"[1]; Trial 2, 49DAA1, halauxifen-methyl 2.5, clopyralid-olamine 150 g ae/ha, alone or mixed",2.5%
same,Mean % Visual Growth Inhibition,"[1]; Trial 3, 8DAA1, halauxifen-methyl 5, clopyralid-olamine 150 g ae/ha, alone or mixed, line r23",2.5%
same,Mean % Visual Growth Inhibition,"[1]; Trial 3, 8DAA1, halauxifen-methyl 5, clopyralid-olamine 150 g ae/ha, alone or mixed, line r25",1.5%
same,Mean % Visual Growth Inhibition,"[1]; Trial 3, 8DAA1, halauxifen-methyl 10, clopyralid-olamine 150 g ae/ha, alone or mixed, line r22",3.3%
same,Mean % Visual Growth Inhibition,"[1]; Trial 3, 8DAA1, halauxifen-methyl 10, clopyralid-olamine 150 g ae/ha, alone or mixed, line r24",2.3%
same,Mean % Visual Growth Inhibition,"[1]; Trial 3, 17DAA1, halauxifen-methyl 5, clopyralid-olamine 150 g ae/ha, alone or mixed, line r27",1.3%
same,Mean % Visual Growth Inhibition,"[1]; Trial 3, 17DAA1, halauxifen-methyl 5, clopyralid-olamine 150 g ae/ha, alone or mixed, line r29",1.5%
same,Mean % Visual Growth Inhibition,"[1]; Trial 3, 17DAA1, halauxifen-methyl 10, clopyralid-olamine 150 g ae/ha, alone or mixed, line r26",29.5%
same,Mean % Visual Growth Inhibition,"[1]; Trial 3, 17DAA1, halauxifen-methyl 10, clopyralid-olamine 150 g ae/ha, alone or mixed, line r28",2.8%
same,Mean % Visual Growth Inhibition,"[1]; Trial 3, 35DAA1, halauxifen-methyl 10, clopyralid-olamine 150 g ae/ha, alone or mixed",0.8%
same,Mean % Visual Growth Inhibition,"[1]; Trial 3, 48DAA1, halauxifen-methyl 5, clopyralid-olamine 150 g ae/ha, alone or mixed, line r31",1.8%
same,Mean % Visual Growth Inhibition,"[1]; Trial 3, 48DAA1, halauxifen-methyl 5, clopyralid-olamine 150 g ae/ha, alone or mixed, line r32",1.5%
same,Mean % Visual Growth Inhibition,"[1]; Trial 4, 13DAA1, halauxifen-methyl 10, clopyralid-olamine 150 g ae/ha, alone or mixed, line r33",57.5%
same,Mean % Visual Growth Inhibition,"[1]; Trial 4, 13DAA1, halauxifen-methyl 10, clopyralid-olamine 150 g ae/ha, alone or mixed, line r34",31.3%
same,Mean % Visual Growth Inhibition,"[1]; Trial 5, 7DAA1, halauxifen-methyl 0.62, clopyralid-olamine 150 g ae/ha, alone or mixed",1.0%
same,Mean % Visual Growth Inhibition,"[1]; Trial 5, 7DAA1, halauxifen-methyl 1.25, clopyralid-olamine 150 g ae/ha, alone or mixed",1.5%
same,Mean % Visual Growth Inhibition,"[1]; Trial 5, 7DAA1, halauxifen-methyl 2.5, clopyralid-olamine 150 g ae/ha, alone or mixed",1.5%
same,Mean % Visual Growth Inhibition,"[1]; Trial 5, 7DAA1, halauxifen-methyl 5, clopyralid-olamine 150 g ae/ha, alone or mixed",2.0%
same,Mean % Visual Growth Inhibition,"[1]; Trial 6, 33DAA1, halauxifen-methyl 5, clopyralid-olamine 150 g ae/ha, alone or mixed",4.5%
same,Mean % Visual Growth Inhibition,"[1]; Trial 7, 8DAA1, halauxifen-methyl 5, clopyralid-olamine 150 g ae/ha, alone or mixed",8.0%
same,Mean % Visual Growth Inhibition,"[1]; Trial 7, 15DAA1, halauxifen-methyl 0.62, clopyralid-olamine 150 g ae/ha, alone or mixed",2.5%
same,Mean % Visual Growth Inhibition,"[1]; Trial 7, 15DAA1, halauxifen-methyl 5, clopyralid-olamine 150 g ae/ha, alone or mixed",15.5%
same,Mean % Visual Growth Inhibition,"[1]; Trial 8, 7DAA1, halauxifen-methyl 5, clopyralid-olamine 150 g ae/ha, alone or mixed",7.5%
same,Mean % Visual Growth Inhibition,"[1]; Trial 8, 7DAA1, halauxifen-methyl 10, clopyralid-olamine 150 g ae/ha, alone or mixed, line r44",9.0%
same,Mean % Visual Growth Inhibition,"[1]; Trial 8, 7DAA1, halauxifen-methyl 10, clopyralid-olamine 150 g ae/ha, alone or mixed, line r45",3.5%
same,Mean % Visual Growth Inhibition,"[1]; Trial 8, 7DAA1, halauxifen-methyl 10, clopyralid-olamine 150 g ae/ha, alone or mixed, line r46",2.0%
same,Mean % Visual Growth Inhibition,"[1]; Trial 8, 7DAA1, halauxifen-methyl 10, clopyralid-olamine 150 g ae/ha, alone or mixed, line r47",1.5%
same,Mean % Visual Growth Inhibition,"[1]; Trial 8, 15DAA1, halauxifen-methyl 5, clopyralid-olamine 150 g ae/ha, alone or mixed",20.0%
same,Mean % Visual Growth Inhibition,"[1]; Trial 8, 15DAA1, halauxifen-methyl 10, clopyralid-olamine 150 g ae/ha, alone or mixed, line r49",6.0%
same,Mean % Visual Growth Inhibition,"[1]; Trial 8, 15DAA1, halauxifen-methyl 10, clopyralid-olamine 150 g ae/ha, alone or mixed, line r50",2.0%
same,Mean % Visual Growth Inhibition,"[1]; Trial 9, 23DAA1, halauxifen-methyl 2.5, clopyralid-olamine 150 g ae/ha, alone or mixed",35.0%
same,Mean % Visual Growth Inhibition,"[1]; Trial 9, 23DAA1, halauxifen-methyl 5, clopyralid-olamine 150 g ae/ha, alone or mixed",50.0%
same,Mean % Visual Growth Inhibition,"[1]; Trial 9, 33DAA1, halauxifen-methyl 5, clopyralid-olamine 150 g ae/ha, alone or mixed",25.0%
same,Mean % Visual Growth Inhibition,"[1]; Trial 9, 59DAA1, halauxifen-methyl 5, clopyralid-olamine 150 g ae/ha, alone or mixed",6.3%
same,Mean % Visual Growth Inhibition,"[1]; Trial 10, 17DAA1, halauxifen-methyl 5, clopyralid-olamine 100 g ae/ha, alone or mixed",46.7%
same,Mean % Visual Growth Inhibition,"[1]; Trial 10, 17DAA1, halauxifen-methyl 5, clopyralid-olamine 150 g ae/ha, alone or mixed",46.7%
same,Mean % Visual Growth Inhibition,"[1]; Trial 10, 17DAA1, halauxifen-methyl 5, clopyralid-olamine 200 g ae/ha, alone or mixed",46.7%
same,Mean % Visual Growth Inhibition,"[1]; Trial 10, 27DAA1, halauxifen-methyl 5, clopyralid-olamine 150 g ae/ha, alone or mixed",16.7%
same,Mean % Visual Growth Inhibition,"[1]; Trial 10, 27DAA1, halauxifen-methyl 5, clopyralid-olamine 200 g ae/ha, alone or mixed",16.7%
same,Mean % Visual Growth Inhibition,"[1]; Trial 11, 7DAA1, halauxifen-methyl 5, clopyralid-olamine 150 g ae/ha, alone or mixed",1.3%
same,Mean % Visual Growth Inhibition,"[1]; Trial 11, 15DAA1, halauxifen-methyl 0.62, clopyralid-olamine 150 g ae/ha, alone or mixed",2.0%
same,Mean % Visual Growth Inhibition,"[1]; Trial 11, 15DAA1, halauxifen-methyl 1.25, clopyralid-olamine 150 g ae/ha, alone or mixed",6.5%
same,Mean % Visual Growth Inhibition,"[1]; Trial 12, 15DAA1, halauxifen-methyl 10, clopyralid-olamine 150 g ae/ha, alone or mixed",25.0%
same,Mean % Visual Growth Inhibition,"[1]; Trial 12, 27DAA1, halauxifen-methyl 5, clopyralid-olamine 150 g ae/ha, alone or mixed",5.8%
same,Mean % Visual Injury,"[2]; 3DAA1, 15 g ae/ha",14.4%
same,Mean % Visual Injury,"[2]; 7DAA1, 15 g ae/ha",16.2%
same,Mean % Visual Injury,"[2]; 15DAA1, 15 g ae/ha",16.2%
same,Mean % Visual Injury,"[2]; 28DAA1, 15 g ae/ha",39.0%
